Experimental findings from ChEMBL document CHEMBL1135295, “Novel camptothecin derivatives. Part 1: oxyalkanoic acid esters of camptothecin and their in vitro and in vivo antitumor activity” (2002) are described below.

One assay relates to HCT-116/VM46. Briefly: Compound was tested in vitro for cytotoxicity against VM46 subline of HCT116 (taxol-resistant) at a drug concentration producing 50% inhibition of colony formation. To be noted: Homo sapiens, read-out: ID50 (the source's name).
The subject of assay [1] is Mus musculus. Briefly: Compound was tested in vivo for antitumor activity, reported as non toxic dose (NTD) in mice injected intraperitoneally with drug.
A further assay relates to NCI/ADR-RES. The assay is described as follows: Compound was tested in vitro for cytotoxicity against MCF-7ADR, human breast cancer cells (taxol-resistant) at a drug concentration producing 50% inhibition of colony formation. It is filed as functional. To be noted: read-out: ID50 (the source's name).
For assay [2], the species on record is Mus musculus. Briefly: The tumor growth value was reported as ratio of surviving days of mice treated with anticancer drug to surviving days of control mice. It is filed as functional.
Another assay relates to HCT-116. The assay is described as follows: Compound was tested in vitro for cytotoxicity against HCT116, human colon cancer cells (taxol-sensitive) at a drug concentration producing 50% inhibition of colony formation. The settings on record: read-out: ID50 (the source's name).
Another assay has as its system PC-3. Briefly: Compound was tested in vitro for cytotoxicity against PC-3, human prostate cancer cells (taxol-sensitive) at a drug concentration producing 50% inhibition of colony formation. To be noted: read-out: ID50 (the source's name). It is filed as functional.
Assay [3] deals with Mus musculus. Briefly: Compound was tested in vivo for antitumor activity, reported as maximum tolerated dose (MTD) in mice injected intraperitoneally with drug.

In general, T/C refers to the ratio of treated to control. For `CC[C@@]1(OC(=O)CCCOc2ccc(Cl)cc2Cl)C(=O)OCc2c1cc1n(c2=O)Cc2cc3ccccc3nc2-1`, the values for the IC50 in the assay with HCT-116/VM46, in the assay with NCI/ADR-RES and with HCT-116 were 27 nM, 89 nM and 39 nM, respectively. Moreover, the NTD in the assay with Mus musculus [1] was determined as 100 mg/kg. Moreover, in the assay filed under Mus musculus [2], the T/C was 250%.
As to `CC[C@@]1(OC(=O)CO[C@@H]2C[C@H](C)CC[C@H]2C(C)C)C(=O)OCc2c1cc1n(c2=O)Cc2cc3ccccc3nc2-1`, the IC50 in the assay on HCT-116/VM46 came out at 2.5 nM; in the assay on NCI/ADR-RES, 7.2 nM; in the assay on PC-3, 6.2 nM; in the assay with HCT-116, 3.6 nM. Besides, in the assay with Mus musculus [1], the NTD turned out to be 100 mg/kg. Also, the T/C in the assay filed under Mus musculus [2] is 200%.
For the compound `CC[C@@]1(OC(=O)COc2ccc(Br)cc2)C(=O)OCc2c1cc1n(c2=O)Cc2cc3ccccc3nc2-1`, the IC50 in the assay with HCT-116/VM46 turned out to be 1.9 nM; in the assay on NCI/ADR-RES, 5.5 nM; in the assay with PC-3, 3.2 nM; in the assay on HCT-116, 3 nM. In addition, the NTD in the assay with Mus musculus [1] was determined as 150 mg/kg. Further, in the assay listed under Mus musculus [2], the T/C is 300%.
As for `CC[C@@]1(OC(=O)COc2ccc3ccccc3c2)C(=O)OCc2c1cc1n(c2=O)Cc2cc3ccccc3nc2-1`, the IC50 was 1.8 nM in the assay with HCT-116/VM46, 4.1 nM in the assay with NCI/ADR-RES, 3.9 nM with PC-3 and 3 nM with HCT-116. Moreover, the NTD with Mus musculus [1] is 150 mg/kg. In the assay filed under Mus musculus [2], the T/C stood at 117%.
As for `CC[C@@]1(OC(=O)COc2ccc([N+](=O)[O-])cc2)C(=O)OCc2c1cc1n(c2=O)Cc2cc3ccccc3nc2-1`, the IC50 in the assay on HCT-116/VM46 was 3 nM; in the assay with NCI/ADR-RES it was 7 nM; in the assay with PC-3, 4.8 nM; in the assay with HCT-116, 3.3 nM. The compound also had an NTD in the assay on Mus musculus [1] of 100 mg/kg. Moreover, in the assay filed under Mus musculus [2], the T/C is reported as 250%.
For the compound `CC[C@@]1(OC(=O)COc2ccc3c(C)c(Cl)c(=O)oc3c2)C(=O)OCc2c1cc1n(c2=O)Cc2cc3ccccc3nc2-1`, the IC50 with HCT-116/VM46 stood at 0.7 nM; in the assay on NCI/ADR-RES, 5.2 nM; in the assay on PC-3, 3 nM; in the assay with HCT-116, 3.5 nM. This compound showed an NTD in the assay with Mus musculus [1] of 75 mg/kg. Also, the T/C in the assay filed under Mus musculus [2] is reported as 200%.
`CC[C@@]1(OC(=O)COc2ccc(Cl)cc2C)C(=O)OCc2c1cc1n(c2=O)Cc2cc3ccccc3nc2-1`: the IC50 in the assay on HCT-116/VM46 is 0.9 nM; with NCI/ADR-RES, 4.3 nM; in the assay with PC-3, 3.5 nM; in the assay on HCT-116 it was 2.7 nM. In addition, the NTD with Mus musculus [1] came to 150 mg/kg. In the assay filed under Mus musculus [2], the T/C is 217%.
`CC[C@@]1(OC(=O)CCCCOc2ccc(F)cc2Br)C(=O)OCc2c1cc1n(c2=O)Cc2cc3ccccc3nc2-1`: the IC50 with HCT-116/VM46 was 94 nM; in the assay with NCI/ADR-RES it was above 100 nM; with HCT-116, above 100 nM. Also, the NTD with Mus musculus [1] came out at 150 mg/kg.
On to `CC[C@@]1(OC(=O)CCOc2ccccc2)C(=O)OCc2c1cc1n(c2=O)Cc2cc3ccccc3nc2-1`, for which the IC50 was determined as 7 nM in the assay on HCT-116/VM46, 28 nM in the assay on NCI/ADR-RES and 8 nM in the assay with HCT-116. The same compound returned an NTD in the assay on Mus musculus [1] of 150 mg/kg. Moreover, in the assay listed under Mus musculus [2], the T/C is on record as 133%.
`CC[C@@]1(OC(=O)COc2ccc3c(c2)OCO3)C(=O)OCc2c1cc1n(c2=O)Cc2cc3ccccc3nc2-1`: the IC50 with HCT-116/VM46 came to 2.4 nM; with NCI/ADR-RES, 5 nM; with PC-3, 4.6 nM; in the assay on HCT-116 it was 3.1 nM. The NTD in the assay on Mus musculus [1] was 45 mg/kg. Also, the T/C in the assay filed under Mus musculus [2] amounted to 200%.
Broadly, the MTD is the highest dose tested that stayed within the study's limit of toxicity. High values mean better tolerability, low ones poorer tolerability. As to `CC[C@@]1(O)C(=O)OCc2c1cc1n(c2=O)Cc2cc3ccccc3nc2-1` [CAMPTOTHECIN], the IC50 in the assay with HCT-116/VM46 came to 2.4 nM; with NCI/ADR-RES it was 3.9 nM; with PC-3, 3.8 nM; with HCT-116, 2.8 nM. The compound further yielded an MTD in the assay with Mus musculus [3] of 12 mg/kg. Further, the T/C in the assay listed under Mus musculus [2] stood at 183%.
In the case of `CCc1c2c(nc3ccc(OC(=O)N4CCC(N5CCCCC5)CC4)cc13)-c1cc3c(c(=O)n1C2)COC(=O)[C@]3(O)CC` [IRINOTECAN], the IC50 in the assay with HCT-116/VM46 is 220 nM; in the assay with NCI/ADR-RES, above 500 nM; in the assay with HCT-116, 540 nM. The compound further came in with a maximal tolerated dose (MTD) with Mus musculus [3] of 200 mg/kg. The T/C in the assay filed under Mus musculus [2] was 217%.
Regarding `CC(=O)O[C@H]1C(=O)[C@@]2(C)[C@H]([C@H](OC(=O)c3ccccc3)[C@]3(O)C[C@H](OC(=O)[C@H](O)[C@@H](NC(=O)c4ccccc4)c4ccccc4)C(C)=C1C3(C)C)[C@]1(OC(C)=O)CO[C@@H]1C[C@@H]2O` [PACLITAXEL], the figures for the IC50 with HCT-116/VM46, in the assay with NCI/ADR-RES and in the assay with PC-3 were above 50 nM, above 10000 nM and 4 nM, respectively. For the same compound, the maximal tolerated dose (MTD) with Mus musculus [3] was found to be 40.6 mg/kg. Moreover, the T/C in the assay filed under Mus musculus [2] stood at 150%.
